Measured values from ChEMBL document CHEMBL1130994, “3-trifluoromethylcarbacephems: synthesis of broad spectrum antibacterial compounds” (1998).
Values after ≈ are worked out from the molar mass of the structure shown.

How the values were obtained:
Assay type in all cases: functional
[1] = test system: Klebsiella pneumoniae; test: Compound was evaluated for inhibitory activity against X26 Klebsiella pneumoniae
[2] = test system: Haemophilus influenzae; test: Compound was evaluated for inhibitory activity against C.L Haemophilus influenzae ampicillin sensitive
[3] = test system: Serratia; test: Compound was evaluated for inhibitory activity against X99 Serratia
[4] = test system: Klebsiella aerogenes; test: Compound was evaluated for inhibitory activity against EB17 Enterobacter aerogenes
[5] = test system: Streptococcus pneumoniae; test: Compound was evaluated for inhibitory activity against Park S Streptococcus pneumoniae
[6] = test system: Klebsiella aerogenes; test: Compound was evaluated for inhibitory activity against C32 Enterobacter aerogenes
[7] = test system: Staphylococcus aureus; test: Compound was evaluated for inhibitory activity against X400S Staphylococcus aureus methicillin resistant and macrolide resistant
[8] = test system: Staphylococcus aureus; test: Compound was evaluated for inhibitory activity against X1.1 Staphylococcus aureus penicillin sensitive
[9] = test system: Serratia; test: Compound was evaluated for inhibitory activity against SE3 Serratia
[10] = test system: Acinetobacter; test: Compound was evaluated for inhibitory activity against AC12 Acinetobacter
[11] = test system: Enterobacter cloacae; test: Compound was evaluated for inhibitory activity against EB5 Enterobacter cloacae
[12] = test system: Escherichia coli; test: Compound was evaluated for inhibitory activity against TEM Escherichia coli beta-lactamase
[13] = test system: Providencia rettgeri; test: Compound was evaluated for inhibitory activity against C24 Providencia rettgeri
[14] = test system: Providencia stuartii; test: Compound was evaluated for inhibitory activity against PR33 Providencia stuartii
[15] = test system: Staphylococcus aureus; test: Compound was evaluated for inhibitory activity against S13E Staphylococcus aureus methicillin resistant penicillin resistant macrolide sensitive (PBP2a producer)
[16] = test system: Streptococcus pyogenes; test: Compound was evaluated for inhibitory activity against C203 Streptococcus pyogenes Gp.A
[17] = test system: Klebsiella pneumoniae; test: Compound was evaluated for inhibitory activity against KAE Klebsiella pneumoniae
[18] = test system: Salmonella; test: Compound was evaluated for inhibitory activity against X514 Salmonella
[19] = test system: Enterobacter cloacae; test: Compound was evaluated for inhibitory activity against 265a Enterobacter cloacae beta-lactamase
[20] = test system: Haemophilus influenzae; test: Compound was evaluated for inhibitory activity against 76 Haemophilus influenzae beta-lactamase
[21] = test system: Morganella morganii; test: Compound was evaluated for inhibitory activity against PR15 Morganella morganii
[22] = test system: Escherichia coli; test: Compound was evaluated for inhibitory activity against EC14 Escherichia coli sensitive
[23] = test system: Citrobacter; test: Compound was evaluated for inhibitory activity against CF17 Citrobacter
[24] = test system: Enterococcus faecalis; test: Compound was evaluated penicillin susceptible
[25] = test system: Enterococcus faecalis; test: Compound was evaluated for inhibitory activity against 2041 Enterococcus faecalis Gp.D streptococcus penicillin susceptible

## N[C@@H](C(=O)N[C@@H]1C(=O)N2C(C(=O)O)=C(C(F)(F)F)CC[C@H]12)c1ccc(O)cc1
[1]
  MIC: 0.06 µM (≈ 0.024 µg/mL)
[2]
  MIC: 0.5 µM (≈ 0.2 µg/mL)
[3]
  MIC: 2 µM (≈ 0.799 µg/mL)
[4]
  MIC: 0.5 µM (≈ 0.2 µg/mL)
[5]
  MIC: 0.25 µM (≈ 0.0998 µg/mL)
[6]
  MIC: 0.25 µM (≈ 0.0998 µg/mL)
[7]
  MIC: 64 µM (≈ 25.6 µg/mL)
[8]
  MIC: 0.5 µM (≈ 0.2 µg/mL)
[9]
  MIC: 16 µM (≈ 6.39 µg/mL)
[10]
  MIC: 16 µM (≈ 6.39 µg/mL)
[11]
  MIC: 1 µM (≈ 0.399 µg/mL)
[12]
  MIC: 0.5 µM (≈ 0.2 µg/mL)
[13]
  MIC: 4 µM (≈ 1.6 µg/mL)
[14]
  MIC: 1 µM (≈ 0.399 µg/mL)
[15]
  MIC: 32 µM (≈ 12.8 µg/mL)
[16]
  MIC: 0.06 µM (≈ 0.024 µg/mL)
[17]
  MIC: 1 µM (≈ 0.399 µg/mL)
[18]
  MIC: 0.06 µM (≈ 0.024 µg/mL)
[19]
  MIC: 1 µM (≈ 0.399 µg/mL)
[20]
  MIC: 0.5 µM (≈ 0.2 µg/mL)
[21]
  MIC: 16 µM (≈ 6.39 µg/mL)
[22]
  MIC: 0.25 µM (≈ 0.0998 µg/mL)
[23]
  MIC: 4 µM (≈ 1.6 µg/mL)
[24]
  MIC: 32 µM (≈ 12.8 µg/mL)

## N[C@@H](C(=O)N[C@@H]1C(=O)N2C(C(=O)O)=C(C(F)(F)F)CC[C@H]12)c1cccc(Br)c1
[1]
  MIC: 0.25 µM (≈ 0.116 µg/mL)
[2]
  MIC: 0.5 µM (≈ 0.231 µg/mL)
[3]
  MIC: 128 µM (≈ 59.2 µg/mL)
[4]
  MIC: 32 µM (≈ 14.8 µg/mL)
[5]
  MIC: 0.13 µM (≈ 0.0601 µg/mL)
[6]
  MIC: 16 µM (≈ 7.4 µg/mL)
[7]
  MIC: 16 µM (≈ 7.4 µg/mL)
[8]
  MIC: 1 µM (≈ 0.462 µg/mL)
[9]
  MIC: 128 µM (≈ 59.2 µg/mL)
[25]
  MIC: 8 µM (≈ 3.7 µg/mL)
[10]
  MIC: 16 µM (≈ 7.4 µg/mL)
[11]
  MIC: 64 µM (≈ 29.6 µg/mL)
[12]
  MIC: 4 µM (≈ 1.85 µg/mL)
[13]
  MIC: 16 µM (≈ 7.4 µg/mL)
[14]
  MIC: 16 µM (≈ 7.4 µg/mL)
[15]
  MIC: 8 µM (≈ 3.7 µg/mL)
[16]
  MIC: 0.13 µM (≈ 0.0601 µg/mL)
[17]
  MIC: 16 µM (≈ 7.4 µg/mL)
[18]
  MIC: 4 µM (≈ 1.85 µg/mL)
[19]
  MIC: 64 µM (≈ 29.6 µg/mL)
[20]
  MIC: 1 µM (≈ 0.462 µg/mL)
[21]
  MIC: 16 µM (≈ 7.4 µg/mL)
[22]
  MIC: 4 µM (≈ 1.85 µg/mL)
[23]
  MIC: 32 µM (≈ 14.8 µg/mL)

## N[C@@H](C(=O)N[C@@H]1C(=O)N2C(C(=O)O)=C(Cl)CS[C@H]12)c1ccccc1 [CEFACLOR ANHYDROUS]
[1]
  MIC: 0.25 µM (≈ 0.092 µg/mL)
[2]
  MIC: 2 µM (≈ 0.736 µg/mL)
[3]
  MIC: 64 µM (≈ 23.5 µg/mL)
[4]
  MIC: 8 µM (≈ 2.94 µg/mL)
[5]
  MIC: 0.5 µM (≈ 0.184 µg/mL)
[6]
  MIC: 32 µM (≈ 11.8 µg/mL)
[7]
  MIC: 128 µM (≈ 47.1 µg/mL)
[8]
  MIC: 0.5 µM (≈ 0.184 µg/mL)
[9]
  MIC: 128 µM (≈ 47.1 µg/mL)
[25]
  MIC: 32 µM (≈ 11.8 µg/mL)
[10]
  MIC: 128 µM (≈ 47.1 µg/mL)
[11]
  MIC: 32 µM (≈ 11.8 µg/mL)
[12]
  MIC: 2 µM (≈ 0.736 µg/mL)
[13]
  MIC: 64 µM (≈ 23.5 µg/mL)
[14]
  MIC: 64 µM (≈ 23.5 µg/mL)
[15]
  MIC: 128 µM (≈ 47.1 µg/mL)
[16]
  MIC: 0.06 µM (≈ 0.0221 µg/mL)
[17]
  MIC: 128 µM (≈ 47.1 µg/mL)
[18]
  MIC: 0.5 µM (≈ 0.184 µg/mL)
[19]
  MIC: 128 µM (≈ 47.1 µg/mL)
[20]
  MIC: 1 µM (≈ 0.368 µg/mL)
[21]
  MIC: 128 µM (≈ 47.1 µg/mL)
[22]
  MIC: 1 µM (≈ 0.368 µg/mL)
[23]
  MIC: 128 µM (≈ 47.1 µg/mL)

## N[C@@H](C(=O)N[C@@H]1C(=O)N2C(C(=O)O)=C(C(F)(F)F)CC[C@H]12)c1ccc(O)c(Cl)c1
[1]
  MIC: 0.13 µM (≈ 0.0564 µg/mL)
[2]
  MIC: 0.5 µM (≈ 0.217 µg/mL)
[3]
  MIC: 4 µM (≈ 1.74 µg/mL)
[4]
  MIC: 1 µM (≈ 0.434 µg/mL)
[5]
  MIC: 0.06 µM (≈ 0.026 µg/mL)
[6]
  MIC: 2 µM (≈ 0.868 µg/mL)
[7]
  MIC: 8 µM (≈ 3.47 µg/mL)
[8]
  MIC: 1 µM (≈ 0.434 µg/mL)
[9]
  MIC: 16 µM (≈ 6.94 µg/mL)
[25]
  MIC: 4 µM (≈ 1.74 µg/mL)
[10]
  MIC: 32 µM (≈ 13.9 µg/mL)
[11]
  MIC: 8 µM (≈ 3.47 µg/mL)
[12]
  MIC: 1 µM (≈ 0.434 µg/mL)
[13]
  MIC: 4 µM (≈ 1.74 µg/mL)
[14]
  MIC: 4 µM (≈ 1.74 µg/mL)
[15]
  MIC: 8 µM (≈ 3.47 µg/mL)
[16]
  MIC: 0.03 µM (≈ 0.013 µg/mL)
[17]
  MIC: 4 µM (≈ 1.74 µg/mL)
[18]
  MIC: 0.125 µM (≈ 0.0542 µg/mL)
[19]
  MIC: 16 µM (≈ 6.94 µg/mL)
[20]
  MIC: 0.5 µM (≈ 0.217 µg/mL)
[21]
  MIC: 4 µM (≈ 1.74 µg/mL)
[22]
  MIC: 0.5 µM (≈ 0.217 µg/mL)
[23]
  MIC: 4 µM (≈ 1.74 µg/mL)

## CS(=O)(=O)Nc1cccc([C@@H](N)C(=O)N[C@@H]2C(=O)N3C(C(=O)O)=C(C(F)(F)F)CC[C@H]23)c1
[1]
  MIC: 0.5 µM (≈ 0.238 µg/mL)
[2]
  MIC: 2 µM (≈ 0.953 µg/mL)
[3]
  MIC: 16 µM (≈ 7.62 µg/mL)
[4]
  MIC: 4 µM (≈ 1.91 µg/mL)
[5]
  MIC: 0.13 µM (≈ 0.0619 µg/mL)
[6]
  MIC: 2 µM (≈ 0.953 µg/mL)
[7]
  MIC: 16 µM (≈ 7.62 µg/mL)
[8]
  MIC: 2 µM (≈ 0.953 µg/mL)
[9]
  MIC: 32 µM (≈ 15.2 µg/mL)
[25]
  MIC: 16 µM (≈ 7.62 µg/mL)
[10]
  MIC: 64 µM (≈ 30.5 µg/mL)
[11]
  MIC: 16 µM (≈ 7.62 µg/mL)
[12]
  MIC: 1 µM (≈ 0.476 µg/mL)
[13]
  MIC: 16 µM (≈ 7.62 µg/mL)
[14]
  MIC: 8 µM (≈ 3.81 µg/mL)
[15]
  MIC: 16 µM (≈ 7.62 µg/mL)
[16]
  MIC: 0.06 µM (≈ 0.0286 µg/mL)
[17]
  MIC: 16 µM (≈ 7.62 µg/mL)
[18]
  MIC: 2 µM (≈ 0.953 µg/mL)
[19]
  MIC: 32 µM (≈ 15.2 µg/mL)
[20]
  MIC: 2 µM (≈ 0.953 µg/mL)
[21]
  MIC: 8 µM (≈ 3.81 µg/mL)
[22]
  MIC: 0.5 µM (≈ 0.238 µg/mL)
[23]
  MIC: 16 µM (≈ 7.62 µg/mL)

## N[C@@H](C(=O)N[C@@H]1C(=O)N2C(C(=O)O)=C(C(F)(F)F)CC[C@H]12)c1ccccc1
[1]
  MIC: 0.25 µM (≈ 0.0958 µg/mL)
[2]
  MIC: 1 µM (≈ 0.383 µg/mL)
[3]
  MIC: 8 µM (≈ 3.07 µg/mL)
[4]
  MIC: 2 µM (≈ 0.767 µg/mL)
[5]
  MIC: 0.25 µM (≈ 0.0958 µg/mL)
[6]
  MIC: 4 µM (≈ 1.53 µg/mL)
[7]
  MIC: 32 µM (≈ 12.3 µg/mL)
[8]
  MIC: 0.5 µM (≈ 0.192 µg/mL)
[9]
  MIC: 16 µM (≈ 6.13 µg/mL)
[25]
  MIC: 16 µM (≈ 6.13 µg/mL)
[10]
  MIC: 32 µM (≈ 12.3 µg/mL)
[11]
  MIC: 4 µM (≈ 1.53 µg/mL)
[12]
  MIC: 1 µM (≈ 0.383 µg/mL)
[13]
  MIC: 8 µM (≈ 3.07 µg/mL)
[14]
  MIC: 4 µM (≈ 1.53 µg/mL)
[15]
  MIC: 8 µM (≈ 3.07 µg/mL)
[16]
  MIC: 0.03 µM (≈ 0.0115 µg/mL)
[17]
  MIC: 4 µM (≈ 1.53 µg/mL)
[18]
  MIC: 0.25 µM (≈ 0.0958 µg/mL)
[19]
  MIC: 8 µM (≈ 3.07 µg/mL)
[20]
  MIC: 1 µM (≈ 0.383 µg/mL)
[21]
  MIC: 32 µM (≈ 12.3 µg/mL)
[22]
  MIC: 0.5 µM (≈ 0.192 µg/mL)
[23]
  MIC: 4 µM (≈ 1.53 µg/mL)
